The nature of experiment [1]: Inhibition of NS5A L31M mutant in HCV genotype 2a J6 (M31) infected in human HuH7 replicon cells assessed as reduction in viral replication after 3 days by luciferase reporter gene assay. On the technique in general: In antiviral work, replicon cells carry a viral genome segment that copies itself.
Experiment [2] is described as follows: Inhibition of NS5A in HCV genotype 1b Con1 infected in human HuH7 replicon cells assessed as reduction in viral replication after 3 days by luciferase reporter gene assay.
The nature of experiment [3]: Inhibition of NS5A in HCV genotype 1a H77 infected in human HuH7 replicon cells assessed as reduction in viral replication after 3 days by luciferase reporter gene assay.
The nature of experiment [4]: Inhibition of NS5A in HCV genotype 3a S52 infected in human HuH7 replicon cells assessed as reduction in viral replication after 3 days by luciferase reporter gene assay.
A short description of experiment [5]: Inhibition of NS5A in HCV genotype 4a ED43 infected in human HuH7 replicon cells assessed as reduction in viral replication after 3 days by luciferase reporter gene assay.
A short description of experiment [6]: Inhibition of NS5A L31M mutant in HCV genotype 2a JFH1 (M31) infected in human HuH7 replicon cells assessed as reduction in viral replication after 3 days by luciferase reporter gene assay.
Experiment [7] can be described thus: Inhibition of NS5A in wild type HCV genotype 1a infected in human HuH7 replicon cells assessed as reduction in viral replication after 3 days by luciferase reporter gene assay.
The nature of experiment [8]: Inhibition of NS5A Y93C mutant in HCV genotype 1a infected in human HuH7 replicon cells assessed as reduction in viral replication after 3 days by luciferase reporter gene assay.
Experiment [9] is described as follows: Inhibition of NS5A Y93H mutant in HCV genotype 1b infected in human HuH7 replicon cells assessed as reduction in viral replication after 3 days by luciferase reporter gene assay.
Experiment [10] is described as follows: Inhibition of NS5A in HCV genotype 3a S52 infected in human HuH7 transient chimeric replicon cells assessed as reduction in viral replication after 3 days by luciferase reporter gene assay.
Experiment [11] in a line: Inhibition of NS5A M28T mutant in HCV genotype 1a infected in human HuH7 replicon cells assessed as reduction in viral replication after 3 days by luciferase reporter gene assay.
A short description of experiment [12]: Inhibition of NS5A Q30H mutant in HCV genotype 1a infected in human HuH7 replicon cells assessed as reduction in viral replication after 3 days by luciferase reporter gene assay.
Experiment [13] can be described thus: Inhibition of NS5A Q30E mutant in HCV genotype 1a infected in human HuH7 replicon cells assessed as reduction in viral replication after 3 days by luciferase reporter gene assay.
Experiment [14] in a line: Inhibition of NS5A Y93H mutant in HCV genotype 1a infected in human HuH7 replicon cells assessed as reduction in viral replication after 3 days by luciferase reporter gene assay.
The nature of experiment [15]: Inhibition of NS5A in HCV genotype 4a ED43 infected in human HuH7 transient chimeric replicon cells assessed as reduction in viral replication after 3 days by luciferase reporter gene assay.
Experiment [16] can be described thus: Inhibition of NS5A in HCV genotype 2b MD2b-1 infected in human HuH7 replicon cells assessed as reduction in viral replication after 3 days by luciferase reporter gene assay.
A short description of experiment [17]: Inhibition of NS5A Q30R mutant in HCV genotype 1a infected in human HuH7 replicon cells assessed as reduction in viral replication after 3 days by luciferase reporter gene assay.
Experiment [18] in a line: Inhibition of NS5A L31M mutant in HCV genotype 1a infected in human HuH7 replicon cells assessed as reduction in viral replication after 3 days by luciferase reporter gene assay.
Experiment [19] in a line: Inhibition of NS5A in wild type HCV genotype 1b infected in human HuH7 replicon cells assessed as reduction in viral replication after 3 days by luciferase reporter gene assay.

Turning to `COC(=O)N[C@H](C(=O)N1CCC[C@H]1c1ncc(-c2ccc3c(c2)COc2cc4c(ccc5nc([C@@H]6CC[C@H](C)N6C(=O)[C@@H](NC(=O)OC)C(C)C)[nH]c54)cc2-3)[nH]1)C(C)C`, the EC50 (in general, the midpoint of the concentration-response curve) was 0.234 nM in [1]; 0.018 nM in experiment [2]; 0.011 nM in [3]; 0.077 nM in experiment [4]; 0.02 nM in experiment [5]; 0.019 nM in experiment [6].
For `COC[C@H]1C[C@@H](c2nc3ccc4cc5c(cc4c3[nH]2)OCc2cc(-c3cnc([C@@H]4CCCN4C(=O)[C@@H](NC(=O)OC)C(C)C)[nH]3)ccc2-5)N(C(=O)[C@@H](NC(=O)OC)C(C)C)C1`, the EC50 in [7] turned out to be 0.037 nM; in experiment [1] it was 0.28 nM; in experiment [8] it was 0.22 nM; in experiment [9] it was 0.086 nM; in experiment [10], 0.024 nM; in [2] it was 0.026 nM. Besides, the EC50 was 0.19 nM in experiment [11]; 0.15 nM in experiment [12]; 10 nM in experiment [13]; 0.021 nM in experiment [3]; 4.7 nM in experiment [14]; 0.008 nM in [6]. Besides, the EC50 in experiment [15] was 0.014 nM; in [16], 0.135 nM; in experiment [17] it was 0.22 nM; in experiment [18] it was 0.37 nM; in experiment [19] it was 0.026 nM.

For the origin of these results see BindingDB's records for doi:10.1016/j.bmcl.2019.04.027 (Gilead Sciences, 2019).
